Reference: ChEMBL document CHEMBL1201862, “PubChem BioAssay data set” (2004)
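Tested at 5 concentrations; 48 h exposure; 96-well plates; endpoints linearly interpolated, else capped at highest concentration. Abbreviation: GI50, concentration required for 50% inhibition of growth.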 Calls of active or inactive are those of the source. Rule as the data show it: active = GI50 up to about 1.1 µM and inactive = higher.

Key:
Assay in all cases: NCI anticancer screen, dose series, 48 h
SF-268 = tested on: SF-268
UACC-257 = tested on: UACC-257
HCT-116 = tested on: HCT-116
ACHN = tested on: ACHN
HL-60 = tested on: HL-60
SR = tested on: SR
EKVX = tested on: EKVX
MOLT-4 = tested on: MOLT-4
HCT-15 = tested on: HCT-15
NCI-H226 = tested on: NCI-H226
NCI-H522 = tested on: NCI-H522
Hs-578T = tested on: Hs-578T
SK-OV-3 = tested on: SK-OV-3
SK-MEL-5 = tested on: SK-MEL-5
BT-549 = tested on: BT-549
MCF7 = tested on: MCF7
RXF 393 = tested on: RXF 393
CAKI-1 = tested on: CAKI-1
HCC 2998 = tested on: HCC 2998
HOP-62 = tested on: HOP-62

SMILES	GI50 (SF-268)	GI50 (UACC-257)	GI50 (HCT-116)	GI50 (ACHN)	GI50 (HL-60)	GI50 (SR)	GI50 (EKVX)	GI50 (MOLT-4)	GI50 (HCT-15) [µM]	GI50 (NCI-H226)	GI50 (NCI-H522)	GI50 (Hs-578T)	GI50 (SK-OV-3)	GI50 (SK-MEL-5)	GI50 (BT-549)	GI50 (MCF7)	GI50 (RXF 393)	GI50 (CAKI-1)	GI50 (HCC 2998)	GI50 (HOP-62)
COc1ccc(C2SC(=N)Nc3c2c(C)nn3C(=O)c2ccncc2)cc1OC (stereo not given)	> 10 µM (inactive)	> 10 µM (inactive)	> 10 µM (inactive)	> 10 µM (inactive)	> 10 µM (inactive)	> 10 µM (inactive)	> 10 µM (inactive)	> 10 µM (inactive)	> 10	> 10 µM (inactive)	> 10 µM (inactive)	> 10 µM (inactive)	> 10 µM (inactive)	> 10 µM (inactive)	> 10 µM (inactive)	> 10 µM (inactive)	> 10 µM (inactive)	> 10 µM (inactive)	> 10 µM (inactive)	> 10 µM (inactive)
CN1CCN(C(=O)CCNC(=O)Cc2ccc(C(=O)c3ccccc3)cc2)CC1	> 100 µM (inactive)	> 100 µM (inactive)	> 100 µM (inactive)	> 100 µM (inactive)	58.3 µM (inactive)	> 100 µM (inactive)	> 100 µM (inactive)	> 100 µM (inactive)	> 100	> 100 µM (inactive)	> 100 µM (inactive)	> 100 µM (inactive)	> 100 µM (inactive)	71.6 µM (inactive)	64.3 µM (inactive)	> 100 µM (inactive)	> 100 µM (inactive)	> 100 µM (inactive)	50 µM (inactive)	> 100 µM (inactive)
CCCNC(=S)N/N=C(\C)c1ccc(S(=O)(=O)N(C)c2ccccc2)cc1	7.06 µM (inactive)	> 100 µM (inactive)	> 100 µM (inactive)	24.7 µM (inactive)	> 100 µM (inactive)	49.5 µM (inactive)	37.8 µM (inactive)	> 100 µM (inactive)	> 88.5	29.1 µM (inactive)	> 100 µM (inactive)	3.64 µM (inactive)	45 µM (inactive)	> 100 µM (inactive)	> 100 µM (inactive)	57 µM (inactive)	15.3 µM (inactive)	24.2 µM (inactive)	> 100 µM (inactive)	6.34 µM (inactive)
COC(=O)c1cnc(Cl)c([N+](=O)[O-])c1	2.64 µM (inactive)	7.41 µM (inactive)	2.77 µM (inactive)	12.6 µM (inactive)	2.42 µM (inactive)	1.9 µM (inactive)	1.8 µM (inactive)	2.42 µM (inactive)	2	16.9 µM (inactive)	1.64 µM (inactive)	22.4 µM (inactive)	19.3 µM (inactive)	14.1 µM (inactive)	17.9 µM (inactive)	2.12 µM (inactive)	12 µM (inactive)	11.2 µM (inactive)	8.34 µM (inactive)	19.1 µM (inactive)
COc1ccc(/C=C2\CCC(CN(C)C)C2=O)cc1OC (stereo not given)	10.7 µM (inactive)	5.41 µM (inactive)	2.3 µM (inactive)	7 µM (inactive)	2.07 µM (inactive)	1.86 µM (inactive)	16.1 µM (inactive)	1.29 µM (inactive)	2.9	13.2 µM (inactive)	1.95 µM (inactive)	4.3 µM (inactive)	19.1 µM (inactive)	10.1 µM (inactive)	5.43 µM (inactive)	2.56 µM (inactive)	1.94 µM (inactive)	4.8 µM (inactive)	5.83 µM (inactive)	18.8 µM (inactive)
CCCCc1ccc(Nc2nc(Cl)c3ncn(COCCOC(C)=O)c3n2)cc1	19.4 µM (inactive)	19.8 µM (inactive)	17.6 µM (inactive)	17.5 µM (inactive)	20.9 µM (inactive)	21.2 µM (inactive)	6.19 µM (inactive)	21.2 µM (inactive)	16.7	21.5 µM (inactive)	13.6 µM (inactive)	21.7 µM (inactive)	19.6 µM (inactive)	16.7 µM (inactive)	16.5 µM (inactive)	27.4 µM (inactive)	16.9 µM (inactive)	1.89 µM (inactive)	11.9 µM (inactive)	17.1 µM (inactive)
Cc1ccc2sc3ccc(N)cc3c(=O)c2c1	> 100 µM (inactive)	> 100 µM (inactive)	33.8 µM (inactive)	37.8 µM (inactive)	33.7 µM (inactive)	68.2 µM (inactive)	21.1 µM (inactive)	11.4 µM (inactive)	24.8	82.4 µM (inactive)	30.3 µM (inactive)	47.2 µM (inactive)	41.6 µM (inactive)	51.9 µM (inactive)	51.9 µM (inactive)	26.5 µM (inactive)	38.5 µM (inactive)	30.7 µM (inactive)	37.2 µM (inactive)	32.8 µM (inactive)
CN(C)CCCNC(=O)c1c(O)c2ccccc2[nH]c1=O	83.2 µM (inactive)	> 100 µM (inactive)	> 100 µM (inactive)	> 100 µM (inactive)	> 100 µM (inactive)	> 100 µM (inactive)	> 100 µM (inactive)	> 100 µM (inactive)	> 100	> 100 µM (inactive)	> 100 µM (inactive)	> 100 µM (inactive)	> 100 µM (inactive)	> 100 µM (inactive)	> 100 µM (inactive)	> 100 µM (inactive)	95.7 µM (inactive)	47.2 µM (inactive)	> 100 µM (inactive)	> 100 µM (inactive)
